Measured values from paper PMC6571673, “Cytostatic and Cytotoxic Natural Products against Cancer Cell Models” (Molecules, 2019).

Experiments:
[1] = caco-2 permeability assay; type: in vitro ADME; conditions: human, read-out: efflux ratio, B2A/A2B
Source text: To gain further information regarding intracellular compound localization, studies were extended to include a marker for the ER (Figure 8). The staining pattern for the individual probes are shown in Figure 8A (ER), Figure 8B (Lysosome) and Figure 8D (probe 9a). […] Moreover, when all three channels were merged, white specks were observed, indicating co-localization of probe 9a with cellular structures that are stained by both ER and lysosomal marker dyes (Figure 8F). […] These mechanisms provide a plausible explanation for the lower potency of compound 9 compared to compound 10. Finally, in vitro ADME (absorption, distribution, metabolism, and elimination) profiles were evaluated for compounds 9 and 10 to compare with the obtained cellular data (Supplementary Material, Figure S10). The aqueous solubility properties at physiological pH (7.40) of compounds 9 and 10 were good compared to controls. […] The combined findings indicate that the steric-effects of the hydroxysuccinate appendage of compound 10 renders it less prone to degradation by lysosomal activity or other competing cellular removal mechanisms.

UoC-B1 = experiment: CTG viability assay (CellTiter-Glo, 72 h); type: cell-based; conditions: Homo sapiens, mean ± SEM of triplicates
Description: (§1) All human cell lines were incubated at 37 °C in a 5% CO2 atmosphere and maintained under sterile conditions. Cells were tested for Mycoplasma (Lonza, Alpharetta, GA, USA) using the manufacturer’s conditions prior to experiments. Cell lines were purchased from American Type Culture Collection (ATCC, Manassas, VA, USA) or Leibniz-Institute Deutsche Sammlung von Mikroorganismen und Zellkulturen GmbH (DSMZ, Braunschweig, Germany) and cultured without antibiotics unless stated. Leukemia cells were cultured in RPMI and supplemented with 10% fetal bovine serum (FBS, Hyclone, Logan, UT, USA). SUP-B15, and KOPN-8 lines were cultured in RPMI supplemented with 10% FBS (Hyclone), 1% GlutaMAX™, 1% Pen/Step, and 0.1% β-mercaptoethanol. BJ cells were cultured in EMEM media supplemented with 10% FBS (Hyclone). Breast cancer cells (MDA-MB-231 & SUM149) were cultured in DMEM and Ham’s F12 respectively, supplemented with 10% FBS, 1% GlutaMAX™, 1% Pen/Step, and 2 µM cortisol/1 µg/mL insulin for SUM149. Both cells were grown to 80% confluence densities as recommended by ATCC. PBMCs were supplemented with concanavalin-A (5 μg/mL) and IL-2 (50 U/ml). To test general cytotoxicity, the following cell numbers were used for 384 well plates: KOPN-8 (ACC 552, infant human B cell precursor acute lymphoblastic leukemia with MLL-MLLt1/ENL fusion, 1000 cells/well), SUP-B15 (ACC389, human B cell precursor acute lymphoblastic leukemia of pediatric second relapse carrying the ALL-variant (m-bcr) of BCR-ABL1 fusion gene (e1-a2), 1600 cells/well), NALM-06 (DSMZ ACC128, non-T/non-B ALL at relapse with P15INK4B and P16INK4A deletions, 1200 cells/well), UoC-B1 (pediatric BCP-ALL at second relapse with TCF3/E2A-HFL fusion, 1000 cells/well), BJ (CRL-2522, normal human foreskin fibroblast cells, 400 cells/well) and PBMCs (periphery blood monocyte cells from healthy donors, IBC#BDC046, 10,000 cells/well).
(§2) Cytotoxicity evaluation was performed using the CellTiter-Glo Luminescent Cell Viability Assay kit (G7570, Promega, Madison, WI, USA), according to the manufacturer’s instructions. Briefly, the cell concentrations used were experimentally determined to ensure logarithmic growth during the 72-h duration of the experiment, and avoid adverse effects on cell growth by DMSO exposure. 1 × 10^3–4.8 × 10^3 or 4 × 10^2–1.2 × 10^3 cells/well were seeded in 96 or 384-well white flat-bottomed plates (3610 or 8804BC, Corning, Corning, NY, USA) in 100 µL or 30 µL/well, respectively. The plates were incubated at 37 °C in 5% CO2 for 24 h before drugging. Test compounds (10 mM in DMSO) in nine 3-fold serial dilutions were dispensed via pintool (Biomek liquid handler, Beckman, Indianapolis, USA) to assay plates. The final concentration of DMSO was 0.3% (v/v) in each well. The positive controls included staurosporine (10 μM), and gambogic acid (10 μM). The plates were incubated for 72 h at 37 °C in 5% CO2, then quenched with CellTiter-Glo® (Promega, Madison, WI, USA, 50 µL/96 or 30 µL/384), centrifuged at 1000 rpm for 1 min and incubated at RT for 20 min. Luminescence was recorded with a plate reader (Envision, Perkin Elmer, Waltham, MA, USA). The mean luminescence of each experimental treatment group was normalized as a percentage of the mean intensity of untreated controls. EC50 values were calculated by Pipeline Pilot software (Accelrys, Enterprise Platform, San Diego, CA, USA).

PBMC = experiment: CTG viability assay (CellTiter-Glo, 72 h); type: cell-based; conditions: Homo sapiens, non-cancerous cells
Description: as §1, §2

BJ = experiment: CTG viability assay (CellTiter-Glo, 72 h); type: cell-based, human; conditions: for EC50: Homo sapiens, BJ, CellTiter-Glo, 72 h, non-cancerous cells
Description: as §1, §2

SUP-B15 [2] = experiment: CTG viability assay (CellTiter-Glo, 72 h); type: cell-based, human
Description: as §1, §2

SUP-B15 [3] = experiment: ApoTox-Glo triplex assay; type: cell-based, human; conditions: SUP-B15, 36 h; 9 0.2–100 µM, 10 0.02–10 µM
Description: Cells (9.5 × 10^4 cells/well in 75 µL) were dispensed in 96-well black flat bottom (8807BC, Corning) plates. The cells were incubated for 12 h at 37 °C and treated with compounds (25 µL) for 36 h. DMSO was used as a negative control and camptothecan was used as the positive control. Then, the experiment was stopped by adding the Viability/Cytotoxicity Reagent, and briefly mixed by orbital shaking (300–500 rpm for ~30 s). Plates were incubated for 30 min at 37 °C and fluorescence was measured at the wavelength 400Ex/505Em for viability and 485Ex/520Em for cytotoxicity in an Envision plate reader (Perkin Elmer). Finally, the Caspase-Glo® 3/7 Reagent was added, and the plates were mixed by orbital shaking (300–500 rpm for ~30 s), followed by an additional 30 min incubation at RT. Luminescence was recorded with a plate reader (Envision, Perkin Elmer) to capture caspase 3/7 activation and determine apoptosis induction.

Row | SMILES | efflux ratio [1] | EC50 (UoC-B1) | EC50 (PBMC) | EC50 (BJ) | EC50 (SUP-B15 [2]; Homo sapiens, SUP-B15, mean ± SEM of triplicates) | caspase 3/7 activity (SUP-B15 [3]) | cytotoxicity by membrane integrity (bis-AAF-RF110) (SUP-B15 [3]) | viability (GF-AFC) (SUP-B15 [3]) | activity against BJ (BJ; at the highest tested concentration (43.3 µM)) | EC50 (SUP-B15 [2]; Homo sapiens, SUP-B15, 72 h, mean ± SEM of triplicates) | EC50 (SUP-B15 [2]; mean ± SEM of triplicates)
1 | COC1=C[C@]23CCCN2CCc2cc4c(cc2[C@@H]3[C@@H]1O)OCO4 [Compound 9, cephalotaxine] | ~2 | 17.6 ± 5.8 µM | > 83 µM | > 43.3 µM | 10.4 ± 0.75 µM | increased caspase 3/7 activity | little cytotoxic effects | decreased viability | – | – | –
2 | COC(=O)C[C@](O)(CCCC(C)(C)O)C(=O)O[C@@H]1C(OC)=C[C@]23CCCN2CCc2cc4c(cc2[C@H]13)OCO4 [Compound 10, homoharringtonine, reference compound] | < 1 | 0.0129 ± 0.002 µM | 6.35 µM | > 43.3 µM | – | increased caspase 3/7 activity | little cytotoxic effects | decreased viability | no observable activity | 0.0452 µM | 0.045 ± 0.005 µM
